EC50, hTGR5 % trans and mTGR5 % trans data for ten compounds are collected here from patent US9932309B2, “2-oxo-3,4-dihydropyridine-5-carboxylates and their use” (UNIVERSITE DE LILLE 2 DROIT ET SANTE, priority 2014, dated 2018).

For experiment [1], the target named is T1, hTGR5 (Homo sapiens, UniProt Q8TDU6).
T1 construct: expressed in transfected cells; host or cells: HEK293 cells, transiently co-transfected with the pCRE TA-Luciferase reporter
T1 sequence (Q8TDU6 1-330): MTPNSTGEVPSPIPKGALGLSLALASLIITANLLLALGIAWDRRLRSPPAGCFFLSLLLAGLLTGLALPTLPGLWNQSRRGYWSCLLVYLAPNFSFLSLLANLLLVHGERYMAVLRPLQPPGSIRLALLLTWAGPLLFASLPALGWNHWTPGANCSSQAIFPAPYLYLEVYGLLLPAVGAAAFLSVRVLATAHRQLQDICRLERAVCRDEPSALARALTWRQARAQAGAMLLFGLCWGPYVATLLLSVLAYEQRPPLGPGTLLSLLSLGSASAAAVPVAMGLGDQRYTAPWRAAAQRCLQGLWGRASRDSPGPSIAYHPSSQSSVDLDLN
In words: TGR5/CRE Luciferase Assay (hTGR5). The experiment is classed as cell-based. The settings on record: for pEC50: HEK 293 cells co-transfected with pCMV tag4b-TGR5h and pCRE TA-Luciferase, overnight incubation; for hTGR5 % trans: percentage of the 10 μM LCA value, HEK 293 cells transfected with hTGR5. In outline: (§1)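 Transiently co-transfected HEK293 cells expressing human or mouse TGR5 plus a CRE-luciferase reporter were incubated overnight with rising compound concentrations in duplicate. Luminescence reported cAMP-driven expression; 10 μM lithocholic acid served as positive reference. Curves fitted to a 4-parameter logistic.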

Experiment [2] deals with T2, mTGR5 (Mus musculus, UniProt Q80SS6).
T2 construct: expressed in transfected cells; host or cells: HEK293 cells, transiently co-transfected with the pCRE TA-Luciferase reporter
T2 sequence (Q80SS6 1-329): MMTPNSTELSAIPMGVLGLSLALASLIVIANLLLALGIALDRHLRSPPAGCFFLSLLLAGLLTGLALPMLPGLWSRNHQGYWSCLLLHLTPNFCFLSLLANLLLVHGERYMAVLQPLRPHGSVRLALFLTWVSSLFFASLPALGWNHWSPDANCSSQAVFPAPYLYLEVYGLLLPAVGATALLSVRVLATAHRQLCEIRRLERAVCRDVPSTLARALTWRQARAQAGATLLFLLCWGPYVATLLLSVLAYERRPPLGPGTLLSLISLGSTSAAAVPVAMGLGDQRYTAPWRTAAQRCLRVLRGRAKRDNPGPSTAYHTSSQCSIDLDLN
The experiment can be described thus: TGR5/CRE Luciferase Assay (mTGR5). The experiment is classed as cell-based. The settings on record: for pEC50: HEK 293 cells co-transfected with pCMV AC6-TGR5m and pCRE TA-Luciferase, overnight incubation; for mTGR5 % trans: percentage of the 10 μM LCA value, HEK 293 cells transfected with mTGR5. In outline:
as §1

pEC50: −log10 of the molar value.

Regarding `COCCN1C(=O)CC(c2ccc(Cl)cc2Cl)C(C(=O)OCc2ccccc2OC)=C1C` (stereo not shown) [Example 129, (2-methoxyphenyl)methyl 4-(2,4-dichlorophenyl)-1-(2-methoxyethyl)-6-methyl-2-oxo-3,4-dihydropyridine-5-carboxylate], in experiment [1], the pEC50 (in general, the negative decadic logarithm of the EC50, by convention in mol/L) was 6.40 and the hTGR5 % trans is 89%. In experiment [2], this compound showed a pEC50 of 6.05 and a mTGR5 % trans of 81%.

On to `COCCN1C(=O)CC(c2ccncc2)C(C(=O)OCc2ccccc2OC)=C1C` (stereo not shown) [Example 133, (2-methoxyphenyl)methyl 1-(2-methoxyethyl)-6-methyl-2-oxo-4-(4-pyridyl)-3,4-dihydropyridine-5-carboxylate], for which, in experiment [1], the pEC50 was 5.07 and the hTGR5 % trans amounted to 72%. In experiment [2], this compound gave a pEC50 of 5.31 and a mTGR5 % trans of 83%.

Take `COc1ccccc1[C@H](C)OC(=O)C1=C(C)N(C[C@H]2CCCO2)C(=O)C[C@H]1c1ccc(Cl)cc1` [Example 138, 1-(2-methoxyphenyl)ethyl (4S)-4-(4-chlorophenyl)-6-methyl-2-oxo-1-[[(2R)-tetrahydrofuran-2-yl]methyl]-3,4-dihydropyridine-5-carboxylate]: in experiment [1], the pEC50 is 6.42 and the hTGR5 % trans is on record as 70%. In experiment [2], this compound gave a pEC50 of 5.95 and a mTGR5 % trans of 36%.

As to `CC1=C(C(=O)OCc2ccc(OCCS(=O)(=O)O)cc2)[C@H](c2ccc(Cl)cc2)CC(=O)N1C[C@H]1CCCO1.N` [Example 144, Ammonium 2-[4-[[(4S)-4-(4-chlorophenyl)-6-methyl-2-oxo-1-[[(2R)-tetrahydrofuran-2-yl]methyl]-3,4-dihydropyridine-5-carbonyl]oxymethyl]phenoxy]ethanesulfonate], in experiment [1], the pEC50 was 7.22 and the hTGR5 % trans stood at 95%. Moreover, in experiment [2], the pEC50 is 7.00 and the mTGR5 % trans was determined as 158%.

Consider `COc1ccccc1COC(=O)C1=C(C)N(C[C@@H]2CCCO2)C(=O)C[C@@H]1c1ccc(Cl)nc1` [Example 162, (2-M ethoxyphenyl)-methyl-(4R)-4-(6-chloro-3-pyridyl)-6-methyl-2-oxo-1-[[(2S)-tetrahydrofuran-2-yl]methyl]-3,4-dihydropyridine-5-carboxylate], for which, in experiment [1], the pEC50 was 6.49 and the hTGR5 % trans is given as 92%. Besides, the mTGR5 % trans in experiment [2] came out at 86%.

Consider `COc1ccccc1COC(=O)C1=C(C)N(C[C@@H]2CCCO2)C(=O)C[C@H]1c1ccc(Cl)nc1` [Example 163, (2-Methoxyphenyl)methyl-(4S)-4-(6-chloro-3-pyridyl)-6-methyl-2-oxo-1-[[(2S)-tetra hydrofuran-2-yl]methyl]-3,4-dihydropyridine-5-carboxylate], for which, in experiment [1], the pEC50 is 7.77 and the hTGR5 % trans came out at 105%. The compound also yielded a mTGR5 % trans in experiment [2] of 102%.

In experiment [1], `COc1ccccc1COC(=O)C1=C(C)N(C[C@H]2CCCO2)C(=O)C[C@@H]1c1ccc(Cl)nc1` [Example 165, (2-M ethoxyphenyl)methyl-(4R)-4-(6-chloro-3-pyridyl)-6-methyl-2-oxo-1-[[(2R)-tetrahydrofuran-2-yl]methyl]-3,4-dihydropyridine-5-carboxylate] gave a pEC50 of 6.89 and a hTGR5 % trans of 99%. The compound further registered a mTGR5 % trans in experiment [2] of 71%.

Consider `CC1=C(C(=O)OCc2ccc(OCCCS(=O)(=O)O)cc2)[C@H](c2ccc(Cl)nc2)CC(=O)N1C[C@H]1CCCO1.N` [Example 166, Ammonium,3-[4-[[(4S)-4-(6-chloro-3-pyridyl)-6-methyl-2-oxo-1-[[(2R)-tetrahydrofuran-2-yl]methyl]-3,4-dihydropyridine-5-carbonyl]oxymethyl]phenoxy]propane-1-sulfonate], for which, in experiment [1], the pEC50 was 6.80 and the hTGR5 % trans was found to be 103%. In experiment [2], this compound gave a pEC50 of 7.00 and a mTGR5 % trans of 113%.

Consider `CC1=C(C(=O)OCc2ccc(OCCCS(=O)(=O)O)cc2)[C@H](c2ccc(Cl)cc2)CC(=O)N1C[C@H]1CCCO1.N` [Example 168, Ammonium,3-[4-[[(4S)-4-(4-chlorophenyl)-6-methyl-2-oxo-1-[[(2R)-tetrahydrofuran-2-yl]methyl]-3,4-dihydropyridine-5-carbonyl]oxymethyl]phenoxy]propane-1-sulfonate], for which, in experiment [1], the pEC50 was 7.19 and the hTGR5 % trans is 106%. Also, in experiment [2], the pEC50 is 7.59 and the mTGR5 % trans was determined as 120%.

In the case of `CC1=C(C(=O)OCc2ccc(OCCCCS(=O)(=O)O)cc2)[C@H](c2ccc(Cl)cc2)CC(=O)N1C[C@H]1CCCO1` [Example 169, Ammonium; 4-[4-[[(4S)-4-(4-chlorophenyl)-6-methyl-2-oxo-1-[[(2R)-tetrahydrofuran-2-yl]methyl]-3,4-dihydropyridine-5-carbonyl]oxymethyl]phenoxy]butane-1-sulfonate], in experiment [1], the pEC50 was 7.52 and the hTGR5 % trans is given as 103%. Further, in experiment [2], the negative-log EC50 (pEC50) is 8.05 and the mTGR5 % trans turned out to be 103%.
